According to article PMC9569420 (Communications Biology, 2022):
Several values for one entry are separate records, joined by “and”; a condition that tells them apart may be missing. Equal entries are not always repeated. Structures can show the parent of a compound that is named as a salt. Where two headings read alike, the source gives them in different places.

Legend:
VSV-S [1] = format: cell-based, VSV pseudotyped with SARS-CoV-2 spike
VSV-S [2] = format: cell-based, VSV pseudotyped with SARS-CoV-2 spike; remark: listed apart in the source
VSV-S [3] = format: cell-based, VSV pseudotyped with SARS-CoV-2 spike; remark: listed apart in the source
HaCat cells [4] = test: viability of confluent cells; format: cell-based, human; details: 10 μM, 72 and 120 h
HaCat cells [5] = test: apoptosis assay (activated caspases, SYTOX Green); format: cell-based, human; details: 10 µM, 24 h (Fig 2b source data)
Protocol: Cell proliferation and viability were determined using the Cell Titer 96 Aqueous One Solution and optical density was determined using a SpectraMax M5e Molecular Devices multidetection microplate reader. […] The cells were then fixed and stained for activated caspases (red) and SYTOX Green (for integrity of plasma membrane) by Image-iT^TM LIVE red Poly Caspase Detection kit. Nuclei were stained with Hoechst. Images were acquired by laser confocal microscope ZeissLive/DuoScan equipped with oil immersion objectives 63 × 1.1 and captured in an optical slice of 0.37 µm with appropriate filters. Alternatively, immunoblots were prepared and probed with antibodies to cleaved PARP-1 or cleaved caspase 8.

PLSCR1 [6] = test: PLSCR1 phosphorylation (IP/western), HSV-2 infected HaCaT cells; format: cell-based, human; details: 10 μM, 30 min
PtdS and Akt = test: translocation of PtdS and Akt to the outer leaflet (microscopy), HSV-2 infected HaCat; format: cell-based, human; details: 10µM
PLSCR1 [7] = format: cell-based, monkey; details: 30 min; drugs 10 μM, immunoglobulins 10 μg/ml
[8] = system: Primary vaginal epithelial cells; test: cell proliferation and viability, ~50% confluent; details: 1 μM, 120 h (Fig 1d source data)
Akt, PDPK1, PLCγ = details: apyrase 10 U/ml
[9] = Parallel artificial membrane permeability assay (PAMPA); format: in vitro ADME
MDCK-MDR1 cell = details: 5 µM
in vitro = details: dog, MDCK-MDR1
EIF2AK1 = biological target: T1, EIF2AK1 (Homo sapiens, UniProt Q9BQI3); test: HotSpot kinase assay; format: biochemical; details: read-out: IC50 (M) of Control Compound
T1 construct: purchased Reaction Biology Corporation
Protocol: (§1) Kinase activity were performed by Reaction Biology Corporation using the “HotSpot” assay platform modified from the published procedure.

NEK3 = biological target: T2, NEK3 (Homo sapiens, UniProt P51956); test: HotSpot kinase assay; format: biochemical; details: read-out: IC50 (M) of Control Compound
T2 construct: purchased Reaction Biology Corporation
Protocol: as §1

TTBK1 = biological target: T3, TTBK1 (Homo sapiens, UniProt Q5TCY1); test: HotSpot kinase assay; format: biochemical; details: read-out: IC50 (M) of Control Compound
T3 construct: purchased Reaction Biology Corporation
Protocol: as §1

TTBK2 = biological target: T4, TTBK2 (Homo sapiens, UniProt Q6IQ55); test: HotSpot kinase assay; format: biochemical; details: read-out: IC50 (M) of Control Compound
T4 construct: purchased Reaction Biology Corporation
Protocol: as §1

T1 sequence (Q9BQI3 whole entry): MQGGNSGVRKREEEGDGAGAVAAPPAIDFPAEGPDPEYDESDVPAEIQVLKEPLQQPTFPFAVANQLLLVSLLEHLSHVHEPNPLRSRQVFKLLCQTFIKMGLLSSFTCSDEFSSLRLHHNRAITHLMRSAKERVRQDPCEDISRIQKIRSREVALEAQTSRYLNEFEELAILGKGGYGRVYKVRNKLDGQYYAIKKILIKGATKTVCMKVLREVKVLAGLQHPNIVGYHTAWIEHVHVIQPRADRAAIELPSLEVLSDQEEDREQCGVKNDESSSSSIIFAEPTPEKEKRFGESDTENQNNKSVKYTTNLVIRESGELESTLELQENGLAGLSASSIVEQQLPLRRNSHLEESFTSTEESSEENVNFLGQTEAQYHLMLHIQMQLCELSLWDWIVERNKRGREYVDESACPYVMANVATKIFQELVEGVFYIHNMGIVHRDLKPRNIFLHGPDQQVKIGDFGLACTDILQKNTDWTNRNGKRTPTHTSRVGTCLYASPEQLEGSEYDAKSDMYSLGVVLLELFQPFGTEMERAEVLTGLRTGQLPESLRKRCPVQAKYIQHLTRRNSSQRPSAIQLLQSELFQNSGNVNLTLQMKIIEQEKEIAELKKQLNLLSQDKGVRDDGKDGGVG
T2 sequence (P51956 whole entry): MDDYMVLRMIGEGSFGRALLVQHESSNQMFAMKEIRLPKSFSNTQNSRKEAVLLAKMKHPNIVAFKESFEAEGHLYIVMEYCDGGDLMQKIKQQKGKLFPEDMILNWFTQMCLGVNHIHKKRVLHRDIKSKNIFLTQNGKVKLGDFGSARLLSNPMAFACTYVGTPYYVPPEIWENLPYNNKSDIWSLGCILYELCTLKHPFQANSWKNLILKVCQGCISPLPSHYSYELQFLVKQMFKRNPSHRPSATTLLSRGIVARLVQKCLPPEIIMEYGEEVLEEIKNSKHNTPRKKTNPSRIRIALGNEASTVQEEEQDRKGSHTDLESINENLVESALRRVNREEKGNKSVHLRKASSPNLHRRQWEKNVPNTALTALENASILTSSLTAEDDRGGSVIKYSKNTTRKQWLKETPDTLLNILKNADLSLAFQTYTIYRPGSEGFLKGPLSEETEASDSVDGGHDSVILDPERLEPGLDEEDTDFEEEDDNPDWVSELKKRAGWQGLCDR
T4 sequence (Q6IQ55 whole entry): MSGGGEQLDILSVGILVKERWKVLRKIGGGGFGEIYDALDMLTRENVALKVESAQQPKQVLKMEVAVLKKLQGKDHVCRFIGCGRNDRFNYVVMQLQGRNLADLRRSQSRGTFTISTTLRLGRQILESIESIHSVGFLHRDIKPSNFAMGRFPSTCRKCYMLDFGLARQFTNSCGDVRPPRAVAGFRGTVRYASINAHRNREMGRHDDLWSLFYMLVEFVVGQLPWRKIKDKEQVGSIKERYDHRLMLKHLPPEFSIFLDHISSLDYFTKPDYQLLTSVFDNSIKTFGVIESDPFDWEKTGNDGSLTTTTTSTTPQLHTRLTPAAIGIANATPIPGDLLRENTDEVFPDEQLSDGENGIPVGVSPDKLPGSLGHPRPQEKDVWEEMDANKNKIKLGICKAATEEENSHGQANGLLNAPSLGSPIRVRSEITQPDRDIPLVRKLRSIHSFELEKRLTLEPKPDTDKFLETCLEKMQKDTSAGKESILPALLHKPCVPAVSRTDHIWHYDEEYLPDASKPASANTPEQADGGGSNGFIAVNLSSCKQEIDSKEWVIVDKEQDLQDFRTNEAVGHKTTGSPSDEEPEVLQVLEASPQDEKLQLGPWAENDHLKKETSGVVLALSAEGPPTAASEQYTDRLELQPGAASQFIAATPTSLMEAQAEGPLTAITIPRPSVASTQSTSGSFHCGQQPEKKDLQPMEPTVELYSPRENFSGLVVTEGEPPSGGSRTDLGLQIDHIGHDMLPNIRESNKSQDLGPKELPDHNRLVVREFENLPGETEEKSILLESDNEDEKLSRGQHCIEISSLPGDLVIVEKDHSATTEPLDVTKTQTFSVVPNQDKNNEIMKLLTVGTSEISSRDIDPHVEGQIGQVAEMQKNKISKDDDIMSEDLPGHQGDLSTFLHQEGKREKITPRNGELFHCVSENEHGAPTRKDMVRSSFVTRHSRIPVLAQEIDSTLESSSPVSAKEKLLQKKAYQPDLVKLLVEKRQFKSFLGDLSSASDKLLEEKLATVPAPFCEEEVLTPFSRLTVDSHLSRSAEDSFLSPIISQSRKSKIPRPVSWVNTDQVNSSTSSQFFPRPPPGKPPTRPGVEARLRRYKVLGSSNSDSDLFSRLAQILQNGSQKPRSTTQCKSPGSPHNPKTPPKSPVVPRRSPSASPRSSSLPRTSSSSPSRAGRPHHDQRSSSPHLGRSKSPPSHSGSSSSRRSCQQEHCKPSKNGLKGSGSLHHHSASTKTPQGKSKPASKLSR
T3 sequence (Q5TCY1 whole entry): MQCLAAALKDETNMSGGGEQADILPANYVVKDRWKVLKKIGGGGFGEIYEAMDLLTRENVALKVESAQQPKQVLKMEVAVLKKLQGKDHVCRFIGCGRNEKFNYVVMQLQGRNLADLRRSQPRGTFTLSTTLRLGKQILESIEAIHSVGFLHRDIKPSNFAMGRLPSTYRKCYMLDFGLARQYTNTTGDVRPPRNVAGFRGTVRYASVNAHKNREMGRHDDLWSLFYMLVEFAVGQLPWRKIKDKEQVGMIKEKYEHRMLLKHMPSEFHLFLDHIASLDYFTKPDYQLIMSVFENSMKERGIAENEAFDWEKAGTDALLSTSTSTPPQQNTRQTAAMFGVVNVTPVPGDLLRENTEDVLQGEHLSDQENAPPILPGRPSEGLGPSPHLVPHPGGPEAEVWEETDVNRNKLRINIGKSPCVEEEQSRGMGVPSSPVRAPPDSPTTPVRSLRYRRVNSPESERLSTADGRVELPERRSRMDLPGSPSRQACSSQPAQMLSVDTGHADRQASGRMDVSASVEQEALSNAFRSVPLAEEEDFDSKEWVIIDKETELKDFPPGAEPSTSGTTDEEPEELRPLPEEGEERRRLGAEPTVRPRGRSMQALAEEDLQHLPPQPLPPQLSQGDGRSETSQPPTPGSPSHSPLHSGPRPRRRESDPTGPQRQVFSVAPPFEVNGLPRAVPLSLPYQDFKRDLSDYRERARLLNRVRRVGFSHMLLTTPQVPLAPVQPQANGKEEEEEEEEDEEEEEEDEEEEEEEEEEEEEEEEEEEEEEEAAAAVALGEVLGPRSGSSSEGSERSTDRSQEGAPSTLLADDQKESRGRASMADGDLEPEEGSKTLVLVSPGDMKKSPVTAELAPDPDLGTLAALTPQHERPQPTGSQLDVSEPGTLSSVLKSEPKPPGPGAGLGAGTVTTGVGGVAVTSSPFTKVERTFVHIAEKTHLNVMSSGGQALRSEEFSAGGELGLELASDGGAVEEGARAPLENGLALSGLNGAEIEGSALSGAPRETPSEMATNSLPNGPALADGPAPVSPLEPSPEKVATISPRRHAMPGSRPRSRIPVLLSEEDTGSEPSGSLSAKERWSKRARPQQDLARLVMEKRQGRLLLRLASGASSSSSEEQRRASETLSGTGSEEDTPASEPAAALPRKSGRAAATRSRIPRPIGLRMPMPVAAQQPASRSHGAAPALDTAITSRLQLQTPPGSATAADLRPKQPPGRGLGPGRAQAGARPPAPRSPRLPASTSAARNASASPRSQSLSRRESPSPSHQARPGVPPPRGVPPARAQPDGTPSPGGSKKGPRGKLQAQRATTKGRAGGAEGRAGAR

## CN(C)C(=O)COC(=O)Cc1ccc(OC(=O)c2ccc(NC(=N)N)cc2)cc1 [camostat mesylate]
VSV-S [1]
  VSV-S infection: inhibited
VSV-S [1]; conc 100
  VSV-S plaques relative to DMSO control: 36.1 and 46.6 and 29.7 and 43
VSV-S [2]
  VSV-S infection: inhibited
VSV-S [3]
  VSV-S infection: inhibited
  infectious viral yields relative to DMSO control: 84.6 and 82.05
VSV-S [3]; conc 1
  infectious viral yields relative to DMSO control: 28.2 and 41.02
VSV-S [3]; conc 50
  infectious viral yields relative to DMSO control: 7.6

## CN[C@@H]1C[C@H]2O[C@@](C)([C@@H]1OC)n1c3ccccc3c3c4c(c5c6ccccc6n2c5c31)C(=O)NC4 [Staurosporine, reference compound]
HaCat cells [4]
  cytotoxicity: completely cytotoxic
HaCat cells [5]
  Activated caspase positive (percentage of cells): 100% and 75% and 87.5%
  SYTOX green positive (percentage of cells): 75% and 88.8% and 91.6%
PLSCR1 [6]
  Phosphorylation of PLSCR1: inhibited
PtdS and Akt
  translocation of PtdS and Akt to the outer leaflet of the plasma membrane: inhibited
PLSCR1 [7]
  Phosphorylation of PLSCR1: inhibited
[8]
  cell proliferation and viability, odu as a percentage of the DMSO control: 39.5% and 67.5%

## Apyrase [reference compound]
Akt, PDPK1, PLCγ
  HSV-induced phosphorylation of Akt and PDPK1 in non-permeabilized cells: inhibited

## CC(C)NCC(O)COc1cccc2ccccc12 (stereo not shown) [Propranolol]
[9]; 100 µM
  Recover %: 85%
[9]; PAMPA, PBS pH 7.4, 5 h
  Papp at 5 h, 100 μM: 8.99 ×10⁻⁶ cm/s
MDCK-MDR1 cell
  Recover %: 93%
In vitro
  Papp at 1 h, 5 μM: 67.4 ×10⁻⁶ cm/s

## Cn1cc(-c2ccc3c(c2)CCN3C(=O)Cc2cccc(C(F)(F)F)c2)c2c(N)ncnc21 [GSK-2606414, reference compound]
EIF2AK1
  IC50: 9.62e-08 M

## C[C@H]1O[C@@H](O[C@H]2[C@@H](O)C[C@H](O[C@H]3[C@@H](O)C[C@H](O[C@H]4CC[C@@]5(C)[C@H](CC[C@@H]6[C@@H]5C[C@@H](O)[C@]5(C)[C@@H](C7=CC(=O)OC7)CC[C@]65O)C4)O[C@@H]3C)O[C@@H]2C)C[C@H](O)[C@@H]1O [Digoxin]
MDCK-MDR1 cell
  Recover %: 96%
In vitro
  Papp at 1 h, 5 μM: 3.1 ×10⁻⁶ cm/s

## CN(C)C/C=C/C(=O)Nc1cccc(C(=O)Nc2ccc(Nc3nccc(-c4cccnc4)n3)cc2)c1 [JNK-IN-7, reference compound]
NEK3
  IC50: 5.46e-08 M

## Oc1ccc(-c2nc(-c3ccncc3)c(-c3ccc(F)cc3)[nH]2)cc1 [SB202190, reference compound]
TTBK1
  IC50: 6.89e-06 M
TTBK2
  IC50: 4.31e-06 M
